In PMC9174720, “Evaluation of antioxidant and cytotoxic properties of phenolic N-acylhydrazones: structure–activity relationship” (Royal Society Open Science, 2022):
Like-named read-outs stand apart in the source and are kept apart here.

What was measured:
[1] = DPPH radical scavenging assay; type: biochemical; conditions: for IC50: DPPH 0.05 mM in methanol, incubated 20 and 60 min, absorbance at 517 nm, mean ± s.d. of three measurements, read-out: IC50 for inactivation of DPPH free radical; for stoichiometric factor (SF): SF=[DPPH]/(2×IC50), good antioxidant if SF ≥ 2
Procedure: The antioxidant screening of all PheNAHs was performed using the 2,2-diphenyl-1-picrylhydrazyl (DPPH) method. The solution of DPPH radical in methanol (0.05 mM, 1 ml) was mixed with the tested compound (20 µl of different concentrations in dimethyl sulfoxide (DMSO) and 980 µl of methanol). The reaction mixture was incubated in the dark at room temperature for 20 and 60 min after which the absorbance of the sample was measured spectrophotometrically at 517 nm. All measurements were performed in triplicate. Methanol was used as a control solution, whereas quercetin and nordihydroguaiaretic acid (NDGA) were used as reference compounds. […] IC50 is defined as the minimal concentration of tested compound required for reaching 50% of a maximum scavenging capacity. The results were presented as mean values ± standard deviation (s.d.) of three independent measurements. The stoichiometric factor (SF) was calculated for all compounds using the equation [45, 46]:1 SF=[DPPH]/(2×IC50)

[2] = system: MRC-5; test: MTT cytotoxicity assay on MRC-5 cells; type: cell-based; conditions: Homo sapiens, MRC5, MRC-5 cell line, read-out: Growth inhibitory effects IC50
Procedure: (§1) In this in vitro study, we investigated the influence of PheNAHs on two model systems: human colorectal carcinoma HCT-116 and human healthy fibroblast cell line MRC-5. Both cell lines of low passages were purchased from the European collection of authenticated cell cultures (ECACC) and were cultivated in Dulbecco's Modified Eagle Medium (DMEM) (Sigma, D5796) cell culture medium supplemented with 10% foetal bovine serum (Sigma, F4135-500 ML) and 1% penicillin/streptomycin (Sigma, P4333-100 ML) in 75 cm^2 culture flasks. The cells were maintained according to the standardized procedure in the incubator with humidified atmosphere supplemented with 5% CO2 at a physiological temperature of 37°C, and after a few passages and a confluence of about 80%, the cells were used in all in vitro experiments (Laboratory for Bioengineering protocol CB-003).
(§2) The ability of synthesized compounds to inhibit the growth of two different cell lines was estimated by a standardized 3-(4,5-dimethylthiazol-2-yl)-2,5-diphenyltetrazolium bromide (MTT) assay (Laboratory for Bioengineering protocol CB-005). The approximative number of 10 000 cells per well (in 96-well microplates) were seeded and kept in the incubator for 24 h to enable cell adhesion. After the incubation period, the cells were treated with investigated compounds in the concentration range from 0,1 to 500 µM dissolved in DMEM. Cytotoxic effect was evaluated 24 and 72 h from treatment by following the number of survived cells, thus the cell viability. MTT assay is based on spectrophotometric measurement of reduction rate of 3-(4,5-dimethylthiazol-2-yl)-2,5-diphenyltetrazolium bromide (MTT, Acros Organics, 158990010) to purple formazan crystals subsequently dissolved in DMSO (Fisher Chemical, D/4121/PB15) on a microplate reader (Rayto 2100C) at 550 nm. The percentage of the survived (viable) cells was estimated by dividing the absorbance of the treatment with the absorbance of the control (non-treated) cells and multiplied by 100 [47]. As positive controls, Leucovorin and Irinotecan were selected as compounds used in colon cancer treatment.
(§3) Biological activity was the result of two individual experiments, performed in triplicate for each dose. Statistical analyses were determined using the one-way analysis of variance (ANOVA) test for multiple comparisons, SPSS (Chicago, IL) statistical software package (SPSS for Windows, v. 17, 2008). The IC50 values were calculated from the dose curves by a computer program (CalcuSyn). IC50 values represent the half-maximal inhibitory concentration of tested compounds to measure the influence in inhibition of cell growth for 50%. […] At the beginning of the process of selecting the anti-cancer drug candidate, it is necessary to make a rough preselection between the tested substances. In vitro analysis on cancer and healthy cell lines is quantified in different ways, selectivity also. The selectivity index (SI) of tested drugs usually refers to the simple ratio of IC50 values determined for cancer and healthy cells. Also, the SI can be used for the expression of many other examples, such as SI between antibacterial and antiviral effect, discrimination of the drugs effect between many cancer cell lines, etc. In our experimentation, the values greater than ‘1’ indicate selectivity of the tested substance toward cancer cell line.

[3] = system: HCT-116; test: MTT cytotoxicity assay on HCT-116 cells; type: cell-based, human; conditions: for IC50: Homo sapiens, HCT-116 cell line, read-out: Growth inhibitory effects IC50; for selectivity index (SI): ratio of IC50 values of MRC-5 and HCT-116, values greater than 1 indicate selectivity toward cancer cell line
Procedure: as §1, §2, §3

Compound | IC50 [1] | stoichiometric factor (SF) [1] | IC50 ([2]; 24 h exposure) | IC50 ([2]; 72 h exposure) | IC50 ([3]; 24 h exposure) | IC50 ([3]; 72 h exposure) | selectivity index (SI) ([3]; after 72 h exposure) | selectivity index (SI) ([3]; after 24 h exposure)
O=C(N/N=C/c1ccc(O)c(O)c1)c1ccccc1O [2h] | 1.6 µM | 7.8 | > 500 µM | > 500 µM | > 500 µM | 208 µM |  | 
O=C(N/N=C/c1ccccc1O)c1ccc(O)cc1 [3b] | > 100 µM |  | > 500 µM | > 500 µM | > 500 µM | 101 µM | >4.94 | 
COc1cccc(/C=N/NC(=O)c2ccccc2)c1O [1d] | > 100 µM |  | > 500 µM | 306 µM | > 500 µM | 66.6 µM | 4.6 | 
O=C(N/N=C/c1ccc(O)c(O)c1)c1ccc(O)cc1 [3h] | 2.5 ± 0.1 µM | 5 | > 500 µM | > 500 µM | > 500 µM | 107 µM |  | 
COc1cccc(/C=N/NC(=O)c2ccccc2O)c1O [2d] | > 100 µM |  | 37.9 µM | 87.3 µM | 80.5 µM | 26.2 µM | 3.3 | 
COc1cc(C(=O)N/N=C/c2ccc(O)c(O)c2)ccc1O [4h] | 3.4 ± 0.1 µM | 3.7 | > 500 µM | > 500 µM | > 500 µM | > 500 µM |  | 
COc1cc(/C=N/NC(=O)c2ccc(O)cc2)cc(OC)c1O [3f] | 16.6 ± 0.2 µM | 0.8 | > 500 µM | > 500 µM | > 500 µM | > 500 µM |  | 
COc1cc(C(=O)N/N=C/c2ccccc2O)ccc1O [4b] | > 100 µM |  | > 500 µM | 290 µM | 250 µM | 91.4 µM | 3.17 | >2.00
O=C(N/N=C/c1ccc(O)c(O)c1)c1ccccc1 [1h] | 2.93 ± 0.1 µM | 4.3 | > 500 µM | > 500 µM | > 500 µM | > 500 µM |  | 
O=C(N/N=C/c1ccc(O)cc1)c1cc(O)c(O)c(O)c1 [5c] | 2.9 ± 0.1 µM | 4.3 | 92 µM | 31.9 µM | 71.8 µM | 38.5 µM | 0.83 | 1.28
COc1cc(/C=N/NC(=O)c2ccccc2)ccc1O [1e] | 31.4 ± 0.9 µM | 0.4 | > 500 µM | > 500 µM | > 500 µM | > 500 µM |  | 
COc1cc(C(=O)N/N=C/c2ccc(O)cc2)ccc1O [4c] | > 100 µM |  | > 500 µM | > 500 µM | > 500 µM | > 500 µM |  | 

The next lines start with results.

IC50 [1] | Compound | stoichiometric factor (SF) [1] | IC50 ([2]; 24 h exposure) | IC50 ([2]; 72 h exposure) | IC50 ([3]; 24 h exposure) | IC50 ([3]; 72 h exposure) | selectivity index (SI) ([3]; after 72 h exposure) | selectivity index (SI) ([3]; after 24 h exposure)
0.9 ± 0.1 µM | O=C(N/N=C/c1ccc(O)cc1O)c1cc(O)c(O)c(O)c1 [5g] | 13.9 | 76.4 µM | 78.6 µM | 99.9 µM | 77.3 µM | 1.02 | 0.76
1.2 ± 0.1 µM | O=C(N/N=C/c1ccccc1O)c1cc(O)c(O)c(O)c1 [5b] | 10.4 | 104 µM | 52.1 µM | 62.6 µM | 32.4 µM | 1.61 | 1.67
> 100 µM | O=C(N/N=C/c1ccc(O)cc1O)c1ccccc1O [2g] |  | > 500 µM | > 500 µM | > 500 µM | 61.2 µM |  | 
17.2 ± 1.1 µM | COc1cc(/C=N/NC(=O)c2ccccc2)cc(OC)c1O [1f] | 0.7 | > 500 µM | > 500 µM | > 500 µM | > 500 µM |  | 
> 100 µM | O=C(N/N=C/c1ccc(O)cc1)c1ccccc1O [2c] |  | > 500 µM | > 500 µM | > 500 µM | > 500 µM |  | 
1.3 ± 0.1 µM | O=C(N/N=C/c1ccccc1)c1cc(O)c(O)c(O)c1 [5a] | 9.6 | 175 µM | 59.2 µM | 247 µM | 63.5 µM | 0.93 | 0.71
> 100 µM | O=C(N/N=C/c1ccccc1)c1ccc(O)cc1 [3a] |  | > 500 µM | > 500 µM | > 500 µM | > 500 µM |  | 
20.1 ± 0.9 µM | COc1cc(/C=N/NC(=O)c2ccccc2O)ccc1O [2e] | 0.6 | > 500 µM | > 500 µM | > 500 µM | > 500 µM |  | 
> 100 µM | O=C(N/N=C/c1ccc(O)cc1O)c1ccccc1 [1g] |  | > 500 µM | > 500 µM | > 500 µM | 316 µM |  | 
> 100 µM | O=C(N/N=C/c1ccc(O)cc1)c1ccccc1 [1c] |  | > 500 µM | > 500 µM | > 500 µM | > 500 µM |  | 
